The text below walks through data of publication PMC5908784, “Extracellular loops 2 and 3 of the calcitonin receptor selectively modify agonist binding and efficacy” (Biochemical Pharmacology, 2018).

Positions count from the first letter of the chain named. Where a SMILES comes first, the peptide text is derived from it. Bridges are numbered along the chain shown (N, C = ends).

What all share (assay): cAMP accumulation
Holding throughout (format): cell-based
Common to all, as to details: mean ± S.E.M.; for Emax: cAMP maximal response, SEM; for EC50: cAMP, CV1-FlpIn cells, 30 min, IBMX

For experiment [1], the target named is T1, hCTR T280A (Homo sapiens, UniProt P30988, T280A).
T1 construct: expressed in transfected cells
T1 sequence (P30988 25-474 T280A): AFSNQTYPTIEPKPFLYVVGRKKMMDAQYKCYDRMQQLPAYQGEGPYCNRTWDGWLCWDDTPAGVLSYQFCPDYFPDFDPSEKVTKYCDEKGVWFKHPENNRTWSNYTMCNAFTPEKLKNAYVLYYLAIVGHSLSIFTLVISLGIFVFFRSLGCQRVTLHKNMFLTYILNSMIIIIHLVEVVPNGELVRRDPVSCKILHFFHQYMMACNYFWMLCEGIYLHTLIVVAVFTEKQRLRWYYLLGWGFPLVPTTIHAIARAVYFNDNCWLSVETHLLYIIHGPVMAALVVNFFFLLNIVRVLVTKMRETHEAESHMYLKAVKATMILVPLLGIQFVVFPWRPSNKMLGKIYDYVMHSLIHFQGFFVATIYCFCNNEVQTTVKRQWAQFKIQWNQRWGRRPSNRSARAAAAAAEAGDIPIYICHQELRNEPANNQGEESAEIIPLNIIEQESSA
How it is done: (§1) Cells (2.5 × 10^4 cells/well) were seeded into 96-well plates and incubated overnight. Cells were stimulated with increasing concentrations of ligands for 30 min in the presence of IBMX. The liquid was discarded, changed to absolute ethanol and volatilized to dryness at room temperature. […] Data were normalized to the response of 100 μM forskolin.
(§2) Data were corrected for radioligand occupancy using the Cheng-Prusoff equation in Prism; as such data are reported as pKi. Emax and EC50 were estimated from concentration-response curves using with a 3-parameter logistic equation in Prism (v7). These values are a composite of functional affinity, efficacy and stimulus response coupling. […] Significance was accepted at P < 0.05.

The target of experiment [2] is T2, hCTR V283A (Homo sapiens, UniProt P30988, V283A).
T2 construct: expressed in transfected cells
T2 sequence (P30988 25-474 V283A): T1 sequence (P30988 25-474 T280A) with A256T, V259A
How it is done:
as §1, §2

For experiment [3], the target named is T3, hCTR N288A (Homo sapiens, UniProt P30988, N288A).
T3 construct: expressed in transfected cells
T3 sequence (P30988 25-474 N288A): T1 sequence (P30988 25-474 T280A) with A256T, N264A
The procedure: as §1, §2

The target in experiment [4] is T4, hCTR T295A (Homo sapiens, UniProt P30988, T295A).
T4 construct: c-Myc (N); expressed in transfected cells
T4 sequence (P30988 25-474 T295A): T1 sequence (P30988 25-474 T280A) with A256T, T271A
How it is done: as §1, §2

Experiment [5] has as its target T5, hCTR V375A (Homo sapiens, UniProt P30988, V375A).
T5 construct: c-Myc (N); expressed in transfected cells
T5 sequence (P30988 25-474 V375A): T1 sequence (P30988 25-474 T280A) with A256T, V351A
The procedure:
as §1, §2

With `CC(C)C[C@H](NC(=O)[C@H](CCCCN)NC(=O)CNC(=O)[C@H](CC(C)C)NC(=O)[C@@H](NC(=O)[C@@H]1CSSC[C@H](N)C(=O)N[C@@H](CO)C(=O)N[C@@H](CC(N)=O)C(=O)N[C@@H](CC(C)C)C(=O)N[C@@H](CO)C(=O)N[C@@H]([C@@H](C)O)C(=O)N1)C(C)C)C(=O)N[C@@H](CO)C(=O)N[C@@H](CCC(N)=O)C(=O)N[C@@H](CCC(=O)O)C(=O)N[C@@H](CC(C)C)C(=O)N[C@@H](Cc1c[nH]cn1)C(=O)N[C@@H](CCCCN)C(=O)N[C@@H](CC(C)C)C(=O)N[C@@H](CCC(N)=O)C(=O)N[C@H](C(=O)N[C@@H](Cc1ccc(O)cc1)C(=O)N1CCC[C@H]1C(=O)N[C@@H](CCCNC(=N)N)C(=O)N[C@H](C(=O)N[C@@H](CC(N)=O)C(=O)N[C@H](C(=O)NCC(=O)N[C@@H](CO)C(=O)NCC(=O)N[C@H](C(=O)N1CCC[C@H]1C(N)=O)[C@@H](C)O)[C@@H](C)O)[C@@H](C)O)[C@@H](C)O` [sCT], the Emax (in general, the maximal effect, on the per cent scale that the assay sets) is 107 ± 14% in experiment [1]; 116 ± 12% in experiment [2]; 69 ± 5% in experiment [3]; 138 ± 13% in experiment [4]; 106 ± 5% in experiment [5].

`CSCC[C@H](NC(=O)CNC(=O)[C@H](CO)NC(=O)[C@H](Cc1ccccc1)NC(=O)[C@H](CCCNC(=N)N)NC(=O)[C@H](Cc1c[nH]cn1)NC(=O)[C@H](Cc1ccccc1)NC(=O)[C@H](CC(N)=O)NC(=O)[C@H](CC(N)=O)NC(=O)[C@H](CC(C)C)NC(=O)[C@H](CC(N)=O)NC(=O)[C@H](CCCNC(=N)N)NC(=O)[C@H](Cc1c[nH]c2ccccc12)NC(=O)[C@H](Cc1ccc(O)cc1)NC(=O)[C@H](C)NC(=O)[C@H](CO)NC(=O)[C@H](CC(C)C)NC(=O)[C@@H](NC(=O)[C@@H]1CSSC[C@H](N)C(=O)N[C@@H](CO)C(=O)N[C@@H](CC(N)=O)C(=O)N[C@@H](CC(C)C)C(=O)N[C@@H](CO)C(=O)N[C@@H]([C@@H](C)O)C(=O)N1)C(C)C)C(=O)NCC(=O)N[C@@H](Cc1ccccc1)C(=O)NCC(=O)N1CCC[C@H]1C(=O)N[C@@H](CCC(=O)O)C(=O)N[C@H](C(=O)N1CCC[C@H]1C(N)=O)[C@@H](C)O` [pCT] (H-CSNLSTCVLSAYWRNLNNFHRFSGMGFGPETP-NH2; disulfide 1-7): the Emax turned out to be 113 ± 5% in experiment [1]; 107 ± 9% in experiment [2]; 105 ± 10% in experiment [3]; 123 ± 8% in experiment [4]; 151 ± 8% in experiment [5]. The concentration for a half-maximal effect (EC50) (as a rule, the concentration that produces a half-maximal response) was 0.0398 nM in experiment [1]; 0.0316 nM in experiment [2]; 0.0631 nM in experiment [3]; 0.282 nM in experiment [4]; 0.0316 nM in experiment [5].

As to `CC(C)C[C@H](NC(=O)[C@H](CC(N)=O)NC(=O)[C@H](CC(N)=O)NC(=O)[C@H](CO)NC(=O)[C@H](CO)NC(=O)[C@H](CCCNC(=N)N)NC(=O)[C@@H](NC(=O)[C@H](CC(C)C)NC(=O)[C@H](Cc1ccccc1)NC(=O)[C@H](CC(N)=O)NC(=O)[C@H](C)NC(=O)[C@H](CC(C)C)NC(=O)[C@H](CCCNC(=N)N)NC(=O)[C@H](CCC(N)=O)NC(=O)[C@@H](NC(=O)[C@H](C)NC(=O)[C@@H]1CSSC[C@H](NC(=O)[C@@H](N)CCCCN)C(=O)N[C@@H](CC(N)=O)C(=O)N[C@@H]([C@@H](C)O)C(=O)N[C@@H](C)C(=O)N[C@@H]([C@@H](C)O)C(=O)N1)[C@@H](C)O)C(C)C)C(=O)NCC(=O)N1CCC[C@H]1C(=O)N[C@H](C(=O)N[C@@H](CC(C)C)C(=O)N1CCC[C@H]1C(=O)N1CCC[C@H]1C(=O)N[C@H](C(=O)N[C@@H](CC(N)=O)C(=O)N[C@H](C(=O)NCC(=O)N[C@@H](CO)C(=O)N[C@@H](CC(N)=O)C(=O)N[C@H](C(=O)N[C@@H](Cc1ccc(O)cc1)C(N)=O)[C@@H](C)O)C(C)C)[C@@H](C)O)C(C)C` [rAmy], the maximum response (Emax) in experiment [1] was 69 ± 8%; in experiment [2] it was 77 ± 10%; in experiment [3] it was 64 ± 8%; in experiment [4], 74 ± 19%; in experiment [5], 92 ± 9%.

Turning to `CC(C)C[C@H](NC(=O)CNC(=O)[C@H](C)NC(=O)[C@H](CC(C)C)NC(=O)[C@H](CCCNC(=N)N)NC(=O)[C@H](Cc1cnc[nH]1)NC(=O)[C@@H](NC(=O)[C@@H](NC(=O)[C@@H]1CSSC[C@H](NC(=O)[C@H](C)N)C(=O)N[C@@H](CC(=O)O)C(=O)N[C@@H]([C@@H](C)O)C(=O)N[C@@H](C)C(=O)N[C@@H]([C@@H](C)O)C(=O)N1)C(C)C)[C@@H](C)O)C(=O)N[C@@H](CC(C)C)C(=O)N[C@@H](CO)C(=O)N[C@@H](CCCNC(=N)N)C(=O)N[C@@H](CO)C(=O)NCC(=O)NCC(=O)N[C@H](C(=O)N[C@H](C(=O)N[C@@H](CCCCN)C(=O)N[C@@H](CC(N)=O)C(=O)N[C@@H](CC(N)=O)C(=O)N[C@@H](Cc1ccccc1)C(=O)N[C@H](C(=O)N1CCC[C@H]1C(=O)N[C@H](C(=O)N[C@@H](CC(N)=O)C(=O)N[C@H](C(=O)NCC(=O)N[C@@H](CO)C(=O)N[C@@H](CCCCN)C(=O)N[C@@H](C)C(=O)N[C@@H](Cc1ccccc1)C(N)=O)C(C)C)[C@@H](C)O)C(C)C)C(C)C)C(C)C` [hαCGRP], the Emax in experiment [1] came out at 107 ± 21%; in experiment [2], 130 ± 19%; in experiment [3], 118 ± 17%; in experiment [4], 79 ± 20%; in experiment [5] it was 114 ± 17%. Moreover, the EC50 in experiment [1] is 3.31 nM; in experiment [2] it was 12.9 nM; in experiment [3], 10.2 nM; in experiment [4], 107 nM; in experiment [5], 20.4 nM.
